# Source: patent publication US7393812B2, “Methylidene mevalonates and their use as herbicides” (Dow AgroSciences LLC, priority 2004, dated 2008)
# Legend:
# Experiment in all cases: Post-emergent evaluation
# Assay type in all cases: in vivo
# Details in all cases: after 2 weeks
# [1] = tested on: Canada thistle (Cirsium arvense, CIRAR)
# Procedure: (§1) Seeds of the desired test plant species were planted in Grace-Sierra MetroMix® 306 planting mixture, which typically has a pH of 6.0 to 6.8 and an organic matter content of about 30 percent, in plastic pots with a surface area of 64 square centimeters. When required to ensure good germination and healthy plants, a fungicide treatment and/or other chemical or physical treatment was applied. The plants were grown for 7-21 days in a greenhouse with an approximate 15 hr photoperiod which was maintained at about 23-29° C. during the day and 22-28° C. during the night. Nutrients and water were added on a regular basis and supplemental lighting was provided with overhead metal halide 1000-Watt lamps as necessary. The plants were employed for testing when they reached the first or second true leaf stage.
# (§2) A weighed amount, determined by the highest rate to be tested, of each test compound was placed in a 20 mL glass vial and was dissolved in 4 mL of a 97:3 v/v (volume/volume) mixture of acetone and dimethyl sulfoxide (DMSO) to obtain concentrated stock solutions. […] The concentrated stock solutions obtained were diluted with an aqueous mixture containing acetone, water, isopropyl alcohol, DMSO, Atplus 411F crop oil concentrate, and Triton X-155 surfactant in a 48.5:39:10:1.5:1.0:0.02 v/v ratio to obtain spray solutions of known concentration. The solutions containing the highest concentration to be tested were prepared by diluting 2 mL aliquots of the stock solution with 13 mL of the mixture and lower concentrations were prepared by serial dilution of the stock solution. Approximately 1.5 mL aliquots of each solution of known concentration were sprayed evenly onto each of the test plant pots using a DeVilbiss atomizer driven by compressed air pressure of 2 to 4 psi ([…]) to obtain thorough coverage of each plant. Control plants were sprayed in the same manner with the aqueous mixture. In this test an application rate of 1 ppm results in the application of approximately 1 g/Ha.
# (§3) The treated plants and control plants were placed in a greenhouse as described above and watered by sub-irrigation to prevent wash-off of the test compounds. After 2 weeks the condition of the test plants as compared with that of the untreated plants was determined visually and scored on a scale of 0 to 100 percent where 0 corresponds to no injury and 100 corresponds to complete kill. Species abbreviations as described for Table I with the following additions: soybean (Glycine max, GLXMA), rape (Brassica napus, BRSNN), chickweed (Stellaria media, STEME), cocklebur (Xanthium strumarium XANST), lambsquarters (Chenopodium album, CHEAL), violet (Viola tricolor, VIOTR), bindweed (Polygonum convolvulus, POLCO), spurge (Euphorbia heterophylla, EPHHL), Canada thistle (Cirsium arvense, CIRAR), corn (Zea mays, ZEAMX), rice (Oryza sativa, ORYSA), wheat (Triticum aestivum, TRZAS), crabgrass (Digitaria sanguinalis, DIGSA), shattercane (Sorghum vulgare, SORVU) and yellow nutsedge (Cyperus esculentus, CYPES).
# [2] = tested on: bindweed (Polygonum convolvulus, POLCO)
# Procedure: as §1, §2, §3
# [3] = tested on: blackgrass (Alopecurus myosuroides, ALOMY)
# Procedure: as §1, §2, §3
# [4] = tested on: cocklebur (Xanthium strumarium XANST)
# Procedure: as §1, §2, §3
# corn (Zea mays, ZEAMX) = tested on: corn (Zea mays, ZEAMX)
# Procedure: as §1, §2, §3
# [5] = tested on: lambsquarters (Chenopodium album, CHEAL)
# Procedure: as §1, §2, §3
# [6] = tested on: pigweed (Amaranthus spp., AMARE)
# Procedure: as §1, §2, §3
# [7] = tested on: rape (Brassica napus, BRSNN)
# Procedure: as §1, §2, §3
# [8] = tested on: rice (Oryza sativa, ORYSA)
# Procedure: as §1, §2, §3
# [9] = tested on: soybean (Glycine max, GLXMA)
# Procedure: as §1, §2, §3
# [10] = tested on: spurge (Euphorbia heterophylla, EPHHL)
# Procedure: as §1, §2, §3
# [11] = tested on: wheat (Triticum aestivum, TRZAS)
# Procedure: as §1, §2, §3
# [12] = tested on: wild oats (Avena fatua, AVEFA)
# Procedure: as §1, §2, §3
smiles,measurement,setting,value
"C=C(CO)C(C)(O)CC(=O)O (centres unmarked) [methylidene mevalonate, 3-hydroxy-4-(hydroxymethyl)-3-methylpent-4-enoic acid]",Postemergent % Control,[1]; spray concentration 125 ppm,10%
same,Postemergent % Control,[1]; spray concentration 250 ppm,10%
same,Postemergent % Control,[1]; spray concentration 500 ppm,20%
same,Postemergent % Control,[1]; spray concentration 1000 ppm,40%
same,Postemergent % Control,[1]; spray concentration 2000 ppm,50%
same,Postemergent % Control,[2]; spray concentration 125 ppm,20%
same,Postemergent % Control,[2]; spray concentration 250 ppm,20%
same,Postemergent % Control,[2]; spray concentration 500 ppm,85%
same,Postemergent % Control,[2]; spray concentration 1000 ppm,90%
same,Postemergent % Control,[2]; spray concentration 2000 ppm,95%
same,Postemergent % Control,[3]; spray concentration 125 ppm,0%
same,Postemergent % Control,[3]; spray concentration 250 ppm,20%
same,Postemergent % Control,[3]; spray concentration 500 ppm,60%
same,Postemergent % Control,[3]; spray concentration 1000 ppm,70%
same,Postemergent % Control,[3]; spray concentration 2000 ppm,80%
same,Postemergent % Control,[4]; spray concentration 125 ppm,0%
same,Postemergent % Control,[4]; spray concentration 250 ppm,5%
same,Postemergent % Control,[4]; spray concentration 500 ppm,10%
same,Postemergent % Control,[4]; spray concentration 1000 ppm,20%
same,Postemergent % Control,[4]; spray concentration 2000 ppm,20%
same,Postemergent % Control,"corn (Zea mays, ZEAMX); spray concentration 125 ppm",0%
same,Postemergent % Control,"corn (Zea mays, ZEAMX); spray concentration 250 ppm",20%
same,Postemergent % Control,"corn (Zea mays, ZEAMX); spray concentration 500 ppm",60%
same,Postemergent % Control,"corn (Zea mays, ZEAMX); spray concentration 1000 ppm",98%
same,Postemergent % Control,"corn (Zea mays, ZEAMX); spray concentration 2000 ppm",98%
same,Postemergent % Control,[5]; spray concentration 125 ppm,0%
same,Postemergent % Control,[5]; spray concentration 250 ppm,0%
same,Postemergent % Control,[5]; spray concentration 500 ppm,10%
same,Postemergent % Control,[5]; spray concentration 1000 ppm,50%
same,Postemergent % Control,[5]; spray concentration 2000 ppm,80%
same,Postemergent % Control,[6]; spray concentration 125 ppm,10%
same,Postemergent % Control,[6]; spray concentration 250 ppm,30%
same,Postemergent % Control,[6]; spray concentration 500 ppm,100%
same,Postemergent % Control,[6]; spray concentration 1000 ppm,100%
same,Postemergent % Control,[6]; spray concentration 2000 ppm,100%
same,Postemergent % Control,[7]; spray concentration 125 ppm,0%
same,Postemergent % Control,[7]; spray concentration 250 ppm,10%
same,Postemergent % Control,[7]; spray concentration 500 ppm,50%
same,Postemergent % Control,[7]; spray concentration 1000 ppm,50%
same,Postemergent % Control,[7]; spray concentration 2000 ppm,60%
same,Postemergent % Control,[8]; spray concentration 125 ppm,0%
same,Postemergent % Control,[8]; spray concentration 250 ppm,30%
same,Postemergent % Control,[8]; spray concentration 500 ppm,40%
same,Postemergent % Control,[8]; spray concentration 1000 ppm,80%
same,Postemergent % Control,[8]; spray concentration 2000 ppm,80%
same,Postemergent % Control,[9]; spray concentration 125 ppm,20%
same,Postemergent % Control,[9]; spray concentration 250 ppm,20%
same,Postemergent % Control,[9]; spray concentration 500 ppm,50%
same,Postemergent % Control,[9]; spray concentration 1000 ppm,80%
same,Postemergent % Control,[9]; spray concentration 2000 ppm,80%
same,Postemergent % Control,[10]; spray concentration 125 ppm,30%
same,Postemergent % Control,[10]; spray concentration 250 ppm,30%
same,Postemergent % Control,[10]; spray concentration 500 ppm,50%
same,Postemergent % Control,[10]; spray concentration 1000 ppm,60%
same,Postemergent % Control,[10]; spray concentration 2000 ppm,70%
same,Postemergent % Control,[11]; spray concentration 125 ppm,0%
same,Postemergent % Control,[11]; spray concentration 250 ppm,20%
same,Postemergent % Control,[11]; spray concentration 500 ppm,20%
same,Postemergent % Control,[11]; spray concentration 1000 ppm,70%
same,Postemergent % Control,[11]; spray concentration 2000 ppm,80%
same,Postemergent % Control,[12]; spray concentration 125 ppm,0%
same,Postemergent % Control,[12]; spray concentration 250 ppm,0%
same,Postemergent % Control,[12]; spray concentration 500 ppm,20%
same,Postemergent % Control,[12]; spray concentration 1000 ppm,85%
same,Postemergent % Control,[12]; spray concentration 2000 ppm,90%
